Assay results reported in ChEMBL document CHEMBL1127526, “A comparison of the cytotoxic and physical properties of aziridinyl quinone derivatives based on the pyrrolo[1,2-a]benzimidazole and pyrrolo[1,2-a]indole ring systems” (J Med Chem, 1994).

Assay: The highest concentration employed in the cytotoxicity assay was reported
Assay type: functional

CC(=O)OC1CCn2c1nc1c2C(=O)C(C)=C(N2CC2)C1=O (stereo unspecified)
Concentration: 1 M
